Consider one compound from US5484940A, “Substituted 3-indolyl-5-pyrazolone compounds” (priority 1994, dated 1996).

This experiment deals with T1, 5-lipoxygenase (Rattus norvegicus, UniProt P12527).
T1 construct: crude 5-lipoxygenase enzyme from rat basophilic leukemia cells (RBL-1); endogenous in cells; host or cells: RBL-1 (rat basophilic leukemia cells), crude enzyme
T1 sequence (P12527 1-673): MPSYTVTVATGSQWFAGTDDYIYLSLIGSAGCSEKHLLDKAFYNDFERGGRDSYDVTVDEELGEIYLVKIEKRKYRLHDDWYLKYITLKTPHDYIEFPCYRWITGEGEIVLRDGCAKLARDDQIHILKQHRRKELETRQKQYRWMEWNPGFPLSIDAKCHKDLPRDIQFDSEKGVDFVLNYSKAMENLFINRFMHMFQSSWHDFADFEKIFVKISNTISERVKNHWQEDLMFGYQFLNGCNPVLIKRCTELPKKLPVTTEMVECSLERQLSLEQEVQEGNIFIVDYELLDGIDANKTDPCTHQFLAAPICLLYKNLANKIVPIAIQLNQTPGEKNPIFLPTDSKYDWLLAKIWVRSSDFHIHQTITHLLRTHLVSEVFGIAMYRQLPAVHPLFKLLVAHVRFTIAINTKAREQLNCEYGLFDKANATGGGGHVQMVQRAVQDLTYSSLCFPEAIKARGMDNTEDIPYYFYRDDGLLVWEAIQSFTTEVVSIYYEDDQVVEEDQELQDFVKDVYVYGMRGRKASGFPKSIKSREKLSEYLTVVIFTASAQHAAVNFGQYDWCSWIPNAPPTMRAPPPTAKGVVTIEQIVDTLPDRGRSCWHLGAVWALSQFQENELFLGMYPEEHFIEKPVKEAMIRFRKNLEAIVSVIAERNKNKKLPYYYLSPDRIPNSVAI
Kind of experiment: 5-Lipoxygenase inhibition (5-HETE radioimmunoassay). Particulars: 6 μM compound; crude enzyme from RBL-1 cells; read-out: Percent Inhibition (5-lipoxygenase). The experiment is classed as biochemical. Here is the method:
5-Lipoxygenase catalyzes the oxidative metabolism of arachidonic acid to 5-hydroperoxyeicosatetraenoid acid ([…]), the initial reaction leading to the formation of the leukotrienes^18. Accordingly, compounds inhibiting 5-lipoxygenase activity are art recognized to have anti-inflammatory properties.
The ability of test compounds to inhibit 5-lipoxygenase activity was determined in assays^19 using crude 5-lipoxygenase enzyme from rat basophilic leukemia cells (RBL-1). Test compounds are pre-incubated with the enzyme for 5 minutes at room temperature and the reaction is initiated by addition of substrate (arachidonic acid). Following an 8 minute incubation at room temperature, the reaction is terminated by addition of citric acid, and levels of 5-HETE determined by 5-HETE radioimmunoassay.

Regarding `COc1ccc2c(c1)c(CC1=NN(c3cccc(C(F)(F)F)c3)C(=O)C1)c(C)n2C(=O)c1ccc(Cl)cc1` [Example 25, 3-[1-(4-chlorobenzoyl)-5-methoxy-2-methyl-3-indolylmethyl]-1-(3-trifluoromethylphenyl)-5-pyrazolone], the inhibition at 6 µM amounted to 60%.
